Patent publication US9540366B2, “Ring-fused heterocyclic compound” (Kyowa Hakko Kirin Co., Ltd., priority 2012, dated 2017)
Structures can show the parent of a compound that is named as a salt. Where two headings read alike, the source gives them in different places.

Target: T1, human Cav3.2 T-type Ca2+ channel (Homo sapiens, UniProt O95180)
T1 construct: expressed in transfected cells; host or cells: KJMGER8 cells (Namalwa cell-derived cell line)
Experiment: Inhibitory effect for intracellular calcium response via Cav3.2 T-type Ca2+ channels (FLIPR Calcium 3 Assay Kit)
Assay type: cell-based

[1] = human Cav3.2-expressing KJMGER8 cells (Namalwa-derived), calcium response induced by 5 mmol/L CaCl2, 3 μmol/L mibefradil as reference, read-out: IC50 for the human Cav3.2 T-type Ca2+ current

T1 sequence (O95180 whole entry): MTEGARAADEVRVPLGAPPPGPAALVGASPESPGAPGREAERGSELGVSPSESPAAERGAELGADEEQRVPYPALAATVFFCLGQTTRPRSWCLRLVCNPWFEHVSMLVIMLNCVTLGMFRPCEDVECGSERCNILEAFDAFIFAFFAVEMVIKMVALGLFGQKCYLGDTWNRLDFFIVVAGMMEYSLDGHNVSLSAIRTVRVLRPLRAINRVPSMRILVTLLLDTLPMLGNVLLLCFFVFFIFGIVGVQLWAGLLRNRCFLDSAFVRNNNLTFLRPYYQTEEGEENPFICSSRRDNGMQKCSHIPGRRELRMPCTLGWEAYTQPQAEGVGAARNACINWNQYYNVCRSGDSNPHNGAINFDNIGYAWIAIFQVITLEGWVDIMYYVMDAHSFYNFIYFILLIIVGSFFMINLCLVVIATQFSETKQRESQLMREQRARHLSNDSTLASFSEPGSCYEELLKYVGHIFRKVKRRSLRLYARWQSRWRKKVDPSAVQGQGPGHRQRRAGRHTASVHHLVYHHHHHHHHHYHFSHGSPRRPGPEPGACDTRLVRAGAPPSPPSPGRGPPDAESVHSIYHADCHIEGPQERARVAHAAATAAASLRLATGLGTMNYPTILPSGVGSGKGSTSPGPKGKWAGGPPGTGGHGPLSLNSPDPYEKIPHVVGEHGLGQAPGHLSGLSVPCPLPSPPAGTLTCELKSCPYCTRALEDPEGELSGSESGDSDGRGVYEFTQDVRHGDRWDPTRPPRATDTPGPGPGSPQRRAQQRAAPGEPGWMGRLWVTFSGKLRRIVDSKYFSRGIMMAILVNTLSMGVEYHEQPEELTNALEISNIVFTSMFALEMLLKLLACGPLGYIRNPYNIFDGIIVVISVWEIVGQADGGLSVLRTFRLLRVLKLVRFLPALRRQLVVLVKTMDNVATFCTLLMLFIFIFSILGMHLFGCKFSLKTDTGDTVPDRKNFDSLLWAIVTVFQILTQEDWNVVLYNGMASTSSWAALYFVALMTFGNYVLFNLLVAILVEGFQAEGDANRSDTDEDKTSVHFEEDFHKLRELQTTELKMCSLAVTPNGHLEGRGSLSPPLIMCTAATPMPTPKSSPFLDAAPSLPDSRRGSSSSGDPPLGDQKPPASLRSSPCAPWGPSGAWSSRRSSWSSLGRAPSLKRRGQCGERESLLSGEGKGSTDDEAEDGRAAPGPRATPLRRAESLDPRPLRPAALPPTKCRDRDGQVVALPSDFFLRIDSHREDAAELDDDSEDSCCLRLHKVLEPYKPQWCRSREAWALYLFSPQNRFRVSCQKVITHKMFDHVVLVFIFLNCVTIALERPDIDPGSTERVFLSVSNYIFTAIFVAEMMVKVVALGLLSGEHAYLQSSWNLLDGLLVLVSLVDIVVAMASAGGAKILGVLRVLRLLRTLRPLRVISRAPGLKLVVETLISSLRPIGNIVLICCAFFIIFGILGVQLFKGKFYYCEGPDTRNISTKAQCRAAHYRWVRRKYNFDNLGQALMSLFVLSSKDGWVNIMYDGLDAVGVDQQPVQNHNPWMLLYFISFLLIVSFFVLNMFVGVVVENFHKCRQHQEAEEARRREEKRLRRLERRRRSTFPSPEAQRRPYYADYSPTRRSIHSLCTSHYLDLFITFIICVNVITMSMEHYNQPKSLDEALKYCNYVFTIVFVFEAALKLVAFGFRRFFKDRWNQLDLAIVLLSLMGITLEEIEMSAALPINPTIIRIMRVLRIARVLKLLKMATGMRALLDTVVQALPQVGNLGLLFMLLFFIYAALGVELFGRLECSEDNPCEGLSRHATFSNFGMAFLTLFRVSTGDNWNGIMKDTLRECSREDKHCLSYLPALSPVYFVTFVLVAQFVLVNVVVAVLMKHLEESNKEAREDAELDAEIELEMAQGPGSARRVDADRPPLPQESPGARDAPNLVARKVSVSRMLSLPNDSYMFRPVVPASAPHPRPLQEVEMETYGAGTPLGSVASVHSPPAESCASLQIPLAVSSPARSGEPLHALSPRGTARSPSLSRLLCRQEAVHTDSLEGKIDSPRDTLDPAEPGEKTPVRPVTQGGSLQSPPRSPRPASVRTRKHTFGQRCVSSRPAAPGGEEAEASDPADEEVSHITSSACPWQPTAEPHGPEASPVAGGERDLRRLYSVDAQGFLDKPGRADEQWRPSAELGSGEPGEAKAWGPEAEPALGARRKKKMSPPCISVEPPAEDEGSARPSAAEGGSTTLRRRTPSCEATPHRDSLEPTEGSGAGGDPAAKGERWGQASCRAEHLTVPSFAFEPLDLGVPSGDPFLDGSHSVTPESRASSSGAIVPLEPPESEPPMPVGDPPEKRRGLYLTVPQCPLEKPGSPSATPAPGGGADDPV

Structure (SMILES): CC(C)(CO)NC(=O)c1cc(C#N)n2c(CC3CCC(F)(F)CC3)c(C(F)(F)F)nc2c1 [Compound 162]
- IC50: ≤ 100 nM

Structure (SMILES): Cc1cc(C(=O)NC2CC3(COC3)C2)cc2nc(C(C)C)c(CC3CCC(F)(F)CC3)n12 [Compound 145, 3-[(4,4-Difluorocyclohexyl)methyl]-2-isopropyl-5-methyl-N-(2-oxaspiro[3.3]heptan-6-yl)imidazo[1,2-a]pyridine-7-carboxamide]
- IC50: ≤ 100 nM

Structure (SMILES): Cc1cc(C(=O)NC2CCOCC2)cc2nc(C(C)C)c(N(C)C3CCCCC3)n12 [Compound 34, 3-[Cyclohexyl(methyl)amino]-2-isopropyl-5-methyl-N-(tetrahydro-2H-pyran-4-yl)imidazo[1,2-a]pyridine-7-carboxamide]
- IC50 [1]: ≤ 100 nM

Structure (SMILES): N#Cc1cc(C(=O)NCC(=O)c2ccccc2)cc2nc(C(F)(F)F)c(CC3CCC(F)(F)CC3)n12 [Compound 67, 5-Cyano-3-[(4,4-difluorocyclohexyl)methyl]-N-(2-oxo-2-phenylethyl)-2-(trifluoromethyl)imidazo[1,2-a]pyridine-7-carboxamide]
- IC50: ≤ 100 nM

Structure (SMILES): CCOC(=O)C(=O)CNC(=O)c1cc(C)n2c(CC3CCC(F)(F)CC3)c(C(F)(F)F)nc2c1 [Compound 124, Ethyl 3-{3-[(4,4-difluorocyclohexyl)methyl]-5-methyl-2-(trifluoromethyl)imidazo[1,2-a]pyridine-7-carboxamide}-2-oxopropanoate]
- IC50: ≤ 100 nM

Structure (SMILES): N#Cc1cc(C(=O)NOC2CCOCC2)cc2nc(C(F)(F)F)c(CC3CCC(F)(F)CC3)n12 [Compound 65]
- IC50: ≤ 100 nM

Structure (SMILES): O=C(Nc1ccccc1)c1cc2nc(C3CC(F)(F)C3)c(CC3CCC(F)(F)CC3)n2cc1Cl [Compound 7, 6-Chloro-2-(3,3-difluorocyclobutyl)-3-[(4,4-difluorocyclohexyl)methyl]-N-phenylimidazo[1,2-a]pyridine-7-carboxamide]
- IC50: ≤ 100 nM

Structure (SMILES): O=C(NCCN1CCCCC1)c1cc(Cl)n2c(CC3CCC(F)(F)CC3)c(C(F)(F)F)nc2c1 [Compound 99, 5-Chloro-3-[(4,4-difluorocyclohexyl)methyl]-N-[2-(piperidin-1-yl)ethyl]-2-(trifluoromethyl)imidazo[1,2-a]pyridine-7-carboxamide]
- IC50: ≤ 100 nM

Structure (SMILES): O=C(Nc1ccccc1)c1cc2nc(C3CC3)c(CC3CCC(F)(F)CC3)n2cc1Cl [Compound 6, 6-Chloro-2-cyclopropyl-3-[(4,4-difluorocyclohexyl)methyl]-N-phenylimidazo[1,2-a]pyridine-7-carboxamide]
- IC50: ≤ 100 nM

Structure (SMILES): Cc1cc(C(O)C(O)c2ccccc2)cc2nc(C(F)(F)F)c(CC3CCC(F)(F)CC3)n12 (stereo not drawn) [Compound 94, 1-{3-[(4,4-Difluorocyclohexyl)methyl]-5-methyl-2-(trifluoromethyl)imidazo[1,2-a]pyridin-7-yl}-2-phenylethane-1,2-diol]
- IC50: ≤ 100 nM

Structure (SMILES): O=Cc1cc(C(=O)NC2CCOCC2)cc2nc(C(F)(F)F)c(CC3CCC(F)(F)CC3)n12 [Compound 45, 3-[(4,4-Difluorocyclohexyl)methyl]-5-formyl-N-(tetrahydro-2H-pyran-4-yl)-2-(trifluoromethyl)imidazo[1,2-a]pyridine-7-carboxamide]
- IC50: ≤ 100 nM

Structure (SMILES): CC(C)(CNC(=O)c1cc(C#N)n2c(CC3CCC(F)(F)CC3)c(C(F)(F)F)nc2c1)COC=O [Compound 157, 3-(5-Cyano-3-[(4,4-difluorocyclohexyl)methyl]-2-(trifluoromethyl)imidazo[1,2-a]pyridine-7-carboxamide)-2,2-dimethylpropyl formate]
- IC50: ≤ 100 nM

Structure (SMILES): O=C(NC1CCOCC1)c1cc(O)n2c(CC3CCC(F)(F)CC3)c(C(F)(F)F)nc2c1 [Compound 49, 3-[(4,4-Difluorocyclohexyl)methyl]-5-hydroxy-N-(tetrahydro-2H-pyran-4-yl)-2-(trifluoromethyl)imidazo[1,2-a]pyridine-7-carboxamide]
- IC50: ≤ 100 nM

Structure (SMILES): Cc1cc(C(C)C(=O)NC2CCOCC2)cc2nc(C(F)(F)F)c(CC3CCC(F)(F)CC3)n12 (stereo not drawn) [Compound 89, 2-{3-[(4,4-Difluorocyclohexyl)methyl]-5-methyl-2-(trifluoromethyl)imidazo[1,2-a]pyridin-7-yl}-N-(tetrahydro-2H-pyran-4-yl)propanamide]
- IC50: ≤ 100 nM

Structure (SMILES): CC(F)(F)c1nc2cc(C(=O)NC3CCC(O)CC3)c(Cl)cn2c1CC1CCC(F)(F)CC1 (stereo not drawn) [Compound 25, 6-Chloro-3-[(4,4-difluorocyclohexyl)methyl]-2-(1,1-difluoroethyl)-N-(4-hydroxycyclohexyl)imidazo[1,2-a]pyridine-7-carboxamide]
- IC50: ≤ 100 nM

Structure (SMILES): CC(F)(F)c1nc2cc(C(=O)NC3CCC4(CC3)COC4)c(Cl)cn2c1CC1CCC(F)(F)CC1 [Compound 127, 6-Chloro-3-[(4,4-difluorocyclohexyl)methyl]-2-(1,1-difluoroethyl)-N-(2-oxaspiro[3.5]nonan-7-yl)imidazo[1,2-a]pyridine-7-carboxamide]
- IC50: ≤ 100 nM

Structure (SMILES): CC(F)(F)c1nc2cc(C(=O)NC3CCOCC3)cc(C#N)n2c1CC1CCC(F)(F)CC1 [Compound 159, 5-Cyano-3-[(4,4-difluorocyclohexyl)methyl]-2-(1,1-difluoroethyl)-N-(tetrahydro-2H-pyran-4-yl)imidazo[1,2-a]pyridine-7-carboxamide]
- IC50: ≤ 100 nM

Structure (SMILES): O=C(NCC1CC1)c1cc(Cl)n2c(CC3CCC(F)(F)CC3)c(C(F)(F)F)nc2c1 [Compound 77, 5-Chloro-N-(cyclopropylmethyl)-3-[(4,4-difluorocyclohexyl)methyl]-2-(trifluoromethyl)imidazo[1,2-a]pyridine-7-carboxamide]
- IC50: ≤ 100 nM

Structure (SMILES): Cc1cc(CC(=O)NC2CCOCC2)cc2nc(C(F)(F)F)c(CC3CCC(F)(F)CC3)n12 [Compound 78, 2-{3-[(4,4-Difluorocyclohexyl)methyl]-5-methyl-2-(trifluoromethyl)imidazo[1,2-a]pyridin-7-yl}-N-(tetrahydro-2H-pyran-4-yl)acetamide]
- IC50: ≤ 100 nM

Structure (SMILES): O=C(NCCc1c[nH]cn1)c1cc(Cl)n2c(CC3CCC(F)(F)CC3)c(C(F)(F)F)nc2c1 [Compound 104]
- IC50: ≤ 100 nM

Structure (SMILES): CC(C)c1nc2cc(C(=O)NCC(C)(F)F)cc(C#N)n2c1CC1CCC(F)(F)CC1 [Compound 177, 5-Cyano-3-[(4,4-difluorocyclohexyl)methyl]-N-(2,2-difluoropropyl)-2-isopropylimidazo[1,2-a]pyridine-7-carboxamide]
- IC50: ≤ 100 nM

Structure (SMILES): N#Cc1cc(C(=O)N2CCOC2=O)cc2nc(C(F)(F)F)c(CC3CCC(F)(F)CC3)n12 [Compound 150, 3-[(4,4-Difluorocyclohexyl)methyl]-7-(2-oxoxazolidine-3-carbonyl)-2-(trifluoromethyl)imidazo[1,2-a]pyridine-5-carbonitrile]
- IC50 [1]: ≤ 100 nM

Structure (SMILES): O=C(NCc1ccccc1)c1cc(Cl)n2c(CC3CCC(F)(F)CC3)c(C(F)(F)F)nc2c1 [Compound 98, N-Benzyl-5-chloro-3-[(4,4-difluorocyclohexyl)methyl]-2-(trifluoromethyl)imidazo[1,2-a]pyridine-7-carboxamide]
- IC50: ≤ 100 nM

Structure (SMILES): CC1(C)CC(NC(=O)c2cc3nc(C(C)(F)F)c(CC4CCC(F)(F)CC4)n3cc2Cl)CCO1 (stereo not drawn) [Compound 23, 6-Chloro-3-[(4,4-difluorocyclohexyl)methyl]-2-(1,1-difluoroethyl)-N-(2,2-dimethyltetrahydro-2H-pyran-4-yl)imidazo[1,2-a]pyridine-7-carboxamide]
- IC50: ≤ 100 nM
